According to publication PMC4703549 (Cancer research, 2015):
Entries after “also recorded” stand apart in the source; their conditions may differ. Read-outs that look alike come from different tables or passages of the source.

What was measured:
TNK2 D163E cells = format: cell-based, murine; settings: for IC50: Ba/F3 TNK2 D163E, no IL3, 72 hours, MTS
[1] = system: TNK2 D163E T205I and T205M Ba/F3 lines; format: cell-based, murine; settings: T205I and T205M added to D163E, IL-3 independent Ba/F3 lines
TNK2 R806Q cells = format: cell-based, murine; settings: for IC50: Ba/F3 TNK2 R806Q, no IL3, 72 hours, MTS
[2] = system: TNK2 S808* and TNK2 Q831fs; assay: Phosphorylation of TNK2 truncation mutants in transfected 293T17 cells; format: cell-based, human; settings: 1 μM dasatinib, 2.5 μM XMD8-87 or 2.5 μM XMD16-5, 3.5 hours
parental Ba/F3 cells = assay: Inhibitor study, MTS viability of control Ba/F3 cells grown in IL3; format: cell-based, murine; settings: IL3 containing medium; highest tested concentration 1,000 nM

Which results are given for `c1ccc(-c2oc3ncnc(NC[C@@H]4CCCO4)c3c2-c2ccccc2)cc1` [AIM-100]?
IC50 (TNK2 D163E cells): 91 nM; sensitivity of D163E cell lines carrying gatekeeper mutations [1]: resistance; IC50 (TNK2 R806Q cells): 320 nM

`COc1cc(N2CCN(C)CC2)ccc1Nc1ncc2c(n1)N(C)c1ccccc1C(=O)N2` [XMD8-87] was tested. Which IC50 (TNK2 D163E cells) did it give?
Its IC50 is 38 nM.

And the “sensitivity of D163E cell lines carrying gatekeeper mutations” value [1]?
The value was “resistance”.

And the IC50 (TNK2 R806Q cells)?
The IC50 was 113 nM.

And the “inhibition of phosphorylation of TNK2 truncation mutants” value (“inhibition” below) [2]?
The value was “vast majority of phosphorylation was blocked; also recorded: inhibited; also recorded: potently inhibit”.

How did the IC50 (TNK2 D163E cells) turn out when `CN1c2ccccc2C(=O)Nc2cnc(Nc3ccc(N4CCC(O)CC4)cc3)nc21` [XMD16-5] was run?
The IC50 was 16 nM.

And the “sensitivity of D163E cell lines carrying gatekeeper mutations” value [1]?
The value was “resistance”.

What about the IC50 (TNK2 R806Q cells) of the same compound?
Its IC50 is 77 nM.

What about the “inhibition” value [2] of the same compound?
The value was “vast majority of phosphorylation was blocked; also recorded: inhibited; also recorded: potently inhibit”.

For `Cc1nc(Nc2ncc(C(=O)Nc3c(C)cccc3Cl)s2)cc(N2CCN(CCO)CC2)n1` [dasatinib, N-(2-chloro-6-methyl-phenyl)-2-(6-(4-(2-hydroxyethyl)-piperazin-1-yl)-2-methylpyrimidin-4-ylamino)thiazole-5-carboxamide], which “sensitivity of post-transformation line” value (TNK2 D163E cells; Ba/F3 TNK2 D163E post-interleukin-3-independent transformation) is on record?
Its value is “sensitive to dasatinib at low nanomolar concentrations”.

And the IC50 (TNK2 D163E cells)?
Its IC50 is under 10 nM.

And the IC50 (TNK2 D163E cells; listed as Dasatinib)?
Its IC50 is about 0.1 nM.

What about the “sensitivity of control or pre-transformation cell lines grown in IL3” value (parental Ba/F3 cells) of the same compound?
Its value is “did not show sensitivity; also recorded: completely insensitive”.

And the “sensitivity of D163E cell lines carrying gatekeeper mutations” value [1]?
The value was “resistance”.

And the “sensitivity of post-transformation line” value (TNK2 R806Q cells; Ba/F3 TNK2 R806Q post-interleukin-3-independent transformation)?
Its value is “sensitive to dasatinib at low nanomolar concentrations”.

What about the IC50 (TNK2 R806Q cells) of the same compound?
Its IC50 is under 10 nM.

What about the IC50 (TNK2 R806Q cells; listed as Dasatinib) of the same compound?
The IC50 was 1.3 nM.

What about the “inhibition” value [2] of the same compound?
The value was “vast majority of phosphorylation was blocked; also recorded: inhibited”.
